Experimental findings from article PMC12883167 (Bioorganic & medicinal chemistry letters, 2019) are described below.

One assay addresses T1, MALT1 protease (Homo sapiens, UniProt Q9UDY8).
T1 sequence (Q9UDY8 1-824): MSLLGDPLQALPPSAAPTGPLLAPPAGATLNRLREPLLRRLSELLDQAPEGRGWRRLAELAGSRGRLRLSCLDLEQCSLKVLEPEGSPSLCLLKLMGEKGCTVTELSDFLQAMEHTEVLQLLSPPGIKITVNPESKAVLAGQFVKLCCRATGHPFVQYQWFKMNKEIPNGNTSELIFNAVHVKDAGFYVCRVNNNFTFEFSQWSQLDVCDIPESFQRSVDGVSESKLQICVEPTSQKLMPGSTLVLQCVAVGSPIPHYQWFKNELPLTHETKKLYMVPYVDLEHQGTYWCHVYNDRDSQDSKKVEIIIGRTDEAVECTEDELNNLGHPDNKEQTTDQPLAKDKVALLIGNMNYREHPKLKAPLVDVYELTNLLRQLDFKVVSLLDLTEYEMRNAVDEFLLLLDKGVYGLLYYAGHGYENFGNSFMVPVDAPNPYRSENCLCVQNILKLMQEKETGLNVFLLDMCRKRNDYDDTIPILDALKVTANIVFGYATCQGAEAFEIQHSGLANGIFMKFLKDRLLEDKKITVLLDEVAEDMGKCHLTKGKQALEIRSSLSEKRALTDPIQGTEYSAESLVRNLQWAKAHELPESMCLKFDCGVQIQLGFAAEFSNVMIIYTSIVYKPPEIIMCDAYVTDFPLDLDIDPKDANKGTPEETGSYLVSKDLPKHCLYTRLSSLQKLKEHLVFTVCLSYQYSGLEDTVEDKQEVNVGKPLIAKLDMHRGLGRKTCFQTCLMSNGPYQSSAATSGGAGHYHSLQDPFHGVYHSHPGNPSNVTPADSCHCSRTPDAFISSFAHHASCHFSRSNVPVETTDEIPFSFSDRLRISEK
It counts as cell-based. The following applies: Cell (Glo), GloSensor reporter, PMA/IO activated Raji cells.

The test system of the next assay is OCI-Ly3 cells. Put plainly: OCI-Ly3 cell proliferation assay.
Assay [1] concerns RelB cleavage (MALT1 protease activity) in OCI-Ly3 cells. Put plainly: Inhibition of RelB cleavage in OCI-Ly3 cells by Western blot. Conditions: at 20 μM. It counts as cell-based.
The target of the next assay is T2, MALT1 (Homo sapiens, UniProt Q9UDY8).
T2 sequence (Q9UDY8 1-824): T1 sequence (Q9UDY8 1-824)
The experiment in a line: MALT1 biochemical assay. The following applies: at 5 μM.

Regarding `CCC(=O)[C@H](CCCNC(=N)N)NC(=O)[C@@H]1CCCN1C(=O)[C@@H](NC(=O)[C@H](CC(C)C)NC(=O)OCc1ccccc1)C(C)C` [Compound 2], the IC50 against MALT1 protease was more than 20 µM. In addition, in the assay on OCI-Ly3 cells, the “activity in the cell (proliferation) assay, in words” value is “no activity”. The “inhibition of RelB cleavage” value in assay [1] was “no effects”. The “activity in the biochemical assay” value at MALT1 was “no activity”.

By IC50 is commonly meant the concentration at which inhibition is half-maximal. A lower IC50 goes with higher potency.
